Reference: patent US20260008815A1, “CYCLIC PEPTIDE OR SALT THEREOF, AND USES THEREOF” (FUJIFILM Corporation, priority 2023, published 2026)
Bridge positions count the residues as written; N and C are the ends. Ends that are not written are not given here. COCH2 = acetyl group that carries the bridge

How the values were obtained:
[1] = system: BaF3 cells stably expressing FGFR (bovine); test: BaF3 cell proliferation-promoting effect; type: cell-based; settings: number of viable cells at the addition concentration (0.001 to 10 nmol/L) giving the largest number; 2 nights; negative control about 100 cells/well
Method: (§1) The FGFR phosphorylation ability of the cyclic peptide complex was evaluated using the BaF3 cell proliferation-promoting effect in which FGFR was stably expressed.
(§2) BaF3 cells stably expressing FGFR were established by introducing a vector (human: Sino Biologicals, HG10824-UT, bovine: sequence of Accession No. F1MNW2 was introduced into pCDNA3.1/Hygro(+) Mammalian Expression Vector (Thermo, V87020), porcine: sequence of Accession No. A0A4X1SNN3 was introduced into pCDNA3.1/Hygro(+) Mammalian Expression Vector (Thermo, V87020), and avian: sequence of Accession No. A0A8V0XB17 was introduced into pCDNA3.1/Hygro(+) Mammalian Expression Vector (Thermo, V87020)) into which FGFR gene had been incorporated, into BaF3 cells using NucleoFector (Lonza) and performing drug selection of cells into which the FGFR gene had been introduced using hygromycin.
(§3) The evaluation of the proliferation-promoting effect of BaF3 cells in which FGFR is stably expressed was performed by the following method. First, RPMI-1640 with L-Glutamine and Phenol Red (FUJIFILM Wako Pure Chemical Corporation, 189-02025) and Fetal Bovine Serum (Thermo, 10270-106) were mixed at a volume ratio of 9:1, and then heparin (STEM CELL, 07980) was added thereto such that the final concentration thereof was 8 μg/mL, thereby preparing a culture medium for evaluation (hereinafter, described as RPMI (10% FBS) medium). Next, the BaF3 cells in which FGFR had been stably expressed were washed twice with RPMI (10% FBS) culture medium, suspended in RPMI (10% FBS) culture medium in which the cyclic peptide complex had been dissolved to a final concentration of 0.001 to 10 nmol/L, and seeded in a 384-well plate. In this case, a condition in which the cyclic peptide complex was not added as a negative control was prepared. After culturing at 37° C. (5% CO2) for 2 nights, Hoechst 33342, Trihydrochloride, Trihydrate-10 mg/mL Solution in Water (Thermo, H3570), -Cellstain (registered trademark)-Calcein-AM solution (1 mg/mL DMSO solution) (DOJINDO, C396), and -Cellstain (registered trademark)-PI solution (DOJINDO, P378) were each added to RPMI (10% FBS) culture medium in a volume amount of 1/1,000 at the final concentration, and live/dead staining of the cells were performed by allowing to stand at room temperature for 1 hour, and imaging was performed using a confocal microscope (Yokogawa Electric Corporation, CQ1). The number of viable cells was calculated from the imaging data, and the cell proliferation-promoting effect was evaluated according to the following evaluation criteria. The number of viable cells in the negative control was about 100 cells/well. The evaluation result preferably satisfies the evaluation criteria A, B, or C.
(§4) At an addition concentration of the cyclic peptide complex having the largest number of viable cells, evaluation criteria is as follows.

[2] = system: BaF3 cells stably expressing FGFR (human); test: BaF3 cell proliferation-promoting effect; type: cell-based; settings: number of viable cells at the addition concentration (0.001 to 10 nmol/L) giving the largest number; 2 nights; negative control about 100 cells/well
Method: as §1, §2, §3, §4

[3] = system: BaF3 cells stably expressing FGFR (porcine); test: BaF3 cell proliferation-promoting effect; type: cell-based; settings: number of viable cells at the addition concentration (0.001 to 10 nmol/L) giving the largest number; 2 nights; negative control about 100 cells/well
Method: as §1, §2, §3, §4

[4] = system: BaF3 cells stably expressing FGFR (avian); test: BaF3 cell proliferation-promoting effect; type: cell-based; settings: number of viable cells at the addition concentration (0.001 to 10 nmol/L) giving the largest number; 2 nights; negative control about 100 cells/well
Method: as §1, §2, §3, §4

[5] = Molecular stability after alkali treatment, LC; type: physicochemical; settings: 0.5 mol/L sodium hydroxide aqueous solution added, room temperature, 3 hours
Method: In addition, the stability of the cyclic peptide (SEQ ID NO: 450) containing a cysteine residue in the cyclized portion and the cyclic peptide (SEQ ID NO: 442) containing a homocysteine residue in the cyclized portion was compared under the following alkali treatment, which is a more severe condition.
The alkali treatment was performed by the following method. 25 μL of a 0.2 mg/ml cyclic peptide aqueous solution was prepared, 58.8 μL of a 0.5 mol/L sodium hydroxide aqueous solution was added to the aqueous solution, and the mixture was incubated at room temperature for 3 hours to obtain an aqueous solution of the cyclic peptide alkali-treated. The total area of all the peaks in LC/MS of the cyclic peptide before the alkali treatment was set to 100%, and the proportion of the total area of all the peaks in LC/MS of the aqueous solution of the cyclic peptide alkali-treated was determined to calculate the residual rate of the cyclic peptide.
The LC conditions used for the evaluation of molecular stability are the same as those in the measurement of the above-described cyclic peptide treated with a reducing agent.

| Substance | Evaluation result of cell proliferative properties Bovine [1] | Evaluation result of cell proliferative properties Human [2] | Evaluation result of cell proliferative properties Porcine [3] | Evaluation result of cell proliferative properties Avian [4] | residual rate of the cyclic peptide [5] [%] |
| --- | --- | --- | --- | --- | --- |
| 457 (QCPQNFINPVQWRYFQHYKNKQCPQNFINPVQWRYFQHYKNK; also: cyclic peptide) [compound 457] | A (The number of viable cells is 1,000 cells/well or more.) | A (The number of viable cells is 1,000 cells/well or more.) | A (The number of viable cells is 1,000 cells/well or more.) | A (The number of viable cells is 1,000 cells/well or more.) | – |
| 458 (QCPQNFINPVQWRYFQHYKNKQCPQNFINPVQWRYFQHYKNK; also: cyclic peptide) [compound 458] | A (The number of viable cells is 1,000 cells/well or more.) | A (The number of viable cells is 1,000 cells/well or more.) | A (The number of viable cells is 1,000 cells/well or more.) | A (The number of viable cells is 1,000 cells/well or more.) | – |
| Y-(Hcy)-EENYLDPEQYQYFIYF-(K(acetyl))-YKKK (YXEENYLDPEQYQYFIYFKYKKK; homocysteine, acetyl-lysine; Description of Artificial Sequence: Cyclic peptide) [SEQ ID NO: 442] | – | – | – | – | 61 |
| 460 (YCEENYLDPEQYQYFIYFKYKYCEENYLDPEQYQYFIYFKYK; also: cyclic peptide) [compound 460] | A (The number of viable cells is 1,000 cells/well or more.) | A (The number of viable cells is 1,000 cells/well or more.) | A (The number of viable cells is 1,000 cells/well or more.) | A (The number of viable cells is 1,000 cells/well or more.) | – |
| Y-(C)-EENYLDPEQYQYFIYF-(K(acetyl))-YKKK (YCEENYLDPEQYQYFIYFK(COCH2)YKKK; thioether 2-19) [SEQ ID NO: 450] | – | – | – | – | 36 |
| 456 (QCPQNFINPVQWRYFQHYKNKQCPQNFINPVQWRYFQHYKNK; also: cyclic peptide) [compound 456] | A (The number of viable cells is 1,000 cells/well or more.) | A (The number of viable cells is 1,000 cells/well or more.) | A (The number of viable cells is 1,000 cells/well or more.) | A (The number of viable cells is 1,000 cells/well or more.) | – |
| 455 (KCPQNFINPVQWRYFQHYKNGSGSGSSGSSSGSSKCPQNFINPVQWRYFQHYKN; also: cyclic peptide) [compound 455] | B (The number of viable cells is 400 cells/well or more and less than 1,000 cells/well.) | A (The number of viable cells is 1,000 cells/well or more.) | A (The number of viable cells is 1,000 cells/well or more.) | C (The number of viable cells is 200 cells/well or more and less than 400 cells/well.) | – |
| 459 (QCPQNFINPVQWRYFQHYKNQCPQNFINPVQWRYFQHYKNK; also: cyclic peptide) [compound 459] | B (The number of viable cells is 400 cells/well or more and less than 1,000 cells/well.) | A (The number of viable cells is 1,000 cells/well or more.) | A (The number of viable cells is 1,000 cells/well or more.) | B (The number of viable cells is 400 cells/well or more and less than 1,000 cells/well.) | – |
